What was measured:
Assay in all cases: relative viability (nuclei count vs DMSO), 5 days (fraction); higher = more cells survive
Serdemetan + Phenformin = compound: c1ccc2c(CCNc3ccc(Nc4ccncc4)cc3)c[nH]c2c1 [Serdemetan] + N=C(N)NC(=N)NCCc1ccccc1 [Phenformin] (partner 250 µM)
Summary of the method: (§1)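 Five library-drug doses in √10 steps were combined with a fixed anchor-drug dose, or a single drug was given alone, by pin tool to lung cancer cell lines in 1536-well plates the day after seeding. Nuclei were stained and counted after 5 days. Relative viability is the nuclei count in treated wells over that in vehicle wells, taken as the median of duplicate plates.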

Serdemetan = compound: c1ccc2c(CCNc3ccc(Nc4ccncc4)cc3)c[nH]c2c1 [Serdemetan]
Summary of the method: (§2)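 Vehicle-anchored 1536-well plates of lung cancer cell lines, held overnight at 37 °C, were pinned with five library-drug doses (not always all listed) spaced by √10. No medium change followed over the next 5 days, after which the cells were fixed, permeabilised and Hoechst-stained together and imaged at 4×. Nuclei were counted with MetaXpress, and viability is treated-well nuclei over vehicle-well nuclei, taken as a median across plates. Plates passed with control CV below 25% and at least one doubling.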

Selisistat = compound: C1CC(C2=C(C1)C3=C(N2)C=CC(=C3)Cl)C(=O)N [Selisistat]
Summary of the method: as §2

Selisistat + Navitoclax = compound: C1CC(C2=C(C1)C3=C(N2)C=CC(=C3)Cl)C(=O)N [Selisistat] + CC1(C)CCC(c2ccc(Cl)cc2)=C(CN2CCN(c3ccc(C(=O)NS(=O)(=O)c4ccc(N[C@H](CCN5CCOCC5)CSc5ccccc5)c(S(=O)(=O)C(F)(F)F)c4)cc3)CC2)C1 [Navitoclax] (partner 0.5 µM)
Summary of the method: as §1

Cell Line	relative viability (Serdemetan + Phenformin; first compound 0.04 µM)	relative viability (Serdemetan + Phenformin; first compound 0.1265 µM)	relative viability (Serdemetan + Phenformin; first compound 0.4 µM)	relative viability (Serdemetan + Phenformin; first compound 4 µM)	relative viability (Serdemetan; 0.04 µM)	relative viability (Serdemetan; 0.1265 µM)	relative viability (Serdemetan; 0.4 µM)	relative viability (Serdemetan; 1.265 µM)	relative viability (Serdemetan; 4 µM)	relative viability (Selisistat; 0.4 µM)	relative viability (Selisistat; 1.265 µM)	relative viability (Selisistat; 4 µM)	relative viability (Selisistat; 12.65 µM)	relative viability (Selisistat; 40 µM)	relative viability (Serdemetan + Phenformin; first compound 1.265 µM)	relative viability (Selisistat + Navitoclax; first compound 0.4 µM)	relative viability (Selisistat + Navitoclax; first compound 1.265 µM)	relative viability (Selisistat + Navitoclax; first compound 12.65 µM)	relative viability (Selisistat + Navitoclax; first compound 40 µM)	relative viability (Selisistat + Navitoclax; first compound 4 µM)
NCI-H522	0.669	0.669	0.67	0.679	1.03	0.938	0.943	0.605	1.09	0.899	0.964	0.763	0.806	0.885	–	–	–	–	–	–
HCC-15	0.428	0.459	0.457	0.367	1.03	0.999	0.94	0.807	0.712	1.08	1.04	–	1.02	1.21	0.337	0.778	0.737	0.756	0.742	–
A-427	0.29	0.279	0.273	0.198	0.954	1	1.03	0.762	0.825	1.03	0.984	0.845	0.971	0.944	0.189	0.98	0.986	0.878	1.11	1.04
NCI-H2228	0.38	0.269	0.362	0.21	0.974	0.98	0.945	0.342	0.336	0.9	1.12	0.966	1.05	1.11	0.238	1.15	0.894	0.939	0.747	0.759
NCI-H1734	0.303	0.318	0.338	0.181	0.854	0.455	0.821	0.171	0.263	1.02	0.942	0.921	1.08	1.03	0.156	0.961	0.764	0.858	0.873	0.822
PC-14	0.59	0.537	–	0.549	0.966	0.972	0.689	0.907	0.728	1.02	0.957	0.891	0.954	1.09	0.531	0.963	1.04	1.04	1.07	1.03
NCI-H1915	0.38	0.358	0.359	0.334	1	1.02	0.996	0.819	0.948	0.992	1.03	0.795	0.963	1	0.318	0.782	0.776	0.797	0.804	0.83
NCI-H1666	0.55	0.557	0.535	0.412	0.985	0.946	0.934	0.634	0.781	1.06	0.933	0.877	1.04	0.966	0.529	1.04	1.04	0.77	0.916	0.911
HCC-366	0.665	0.627	0.547	0.0869	1	0.989	0.978	0.121	0.101	0.997	0.957	0.894	1.01	1	0.0583	1.15	0.965	0.97	1.08	0.89
SK-MES-1	0.634	0.646	0.605	0.456	0.959	1.01	0.971	0.831	0.741	1.09	0.986	0.955	0.93	0.976	0.576	1.29	1.14	1.26	1.26	1.4
SW 1573	0.36	0.334	0.289	0.245	0.904	1.11	0.966	0.48	0.343	1.12	0.89	0.896	1.03	1.05	0.211	0.997	0.781	1.15	0.934	0.93
NCI-H661	0.283	0.303	0.254	0.281	0.974	0.977	1.01	0.815	0.94	1.02	1	1	0.901	0.906	0.246	–	–	–	–	–
PC-3 [JPC-3]	0.475	0.494	0.486	0.532	1.04	0.961	0.702	0.98	1.06	1.14	1.04	0.85	1.07	0.948	0.482	0.753	0.741	0.696	0.776	0.746
NCI-H1623	0.618	0.617	0.37	0.739	0.969	1.02	0.961	0.815	0.713	1.08	1.08	0.843	1.09	1.18	0.476	–	–	–	–	–
